Structures are written as SMILES. Where only a bound is given, the exact number is not on record here.

This assay deals with T1, Full length human recombinant HDAC6 protein (Homo sapiens, UniProt Q9UBN7).
T1 sequence (Q9UBN7 1-1215): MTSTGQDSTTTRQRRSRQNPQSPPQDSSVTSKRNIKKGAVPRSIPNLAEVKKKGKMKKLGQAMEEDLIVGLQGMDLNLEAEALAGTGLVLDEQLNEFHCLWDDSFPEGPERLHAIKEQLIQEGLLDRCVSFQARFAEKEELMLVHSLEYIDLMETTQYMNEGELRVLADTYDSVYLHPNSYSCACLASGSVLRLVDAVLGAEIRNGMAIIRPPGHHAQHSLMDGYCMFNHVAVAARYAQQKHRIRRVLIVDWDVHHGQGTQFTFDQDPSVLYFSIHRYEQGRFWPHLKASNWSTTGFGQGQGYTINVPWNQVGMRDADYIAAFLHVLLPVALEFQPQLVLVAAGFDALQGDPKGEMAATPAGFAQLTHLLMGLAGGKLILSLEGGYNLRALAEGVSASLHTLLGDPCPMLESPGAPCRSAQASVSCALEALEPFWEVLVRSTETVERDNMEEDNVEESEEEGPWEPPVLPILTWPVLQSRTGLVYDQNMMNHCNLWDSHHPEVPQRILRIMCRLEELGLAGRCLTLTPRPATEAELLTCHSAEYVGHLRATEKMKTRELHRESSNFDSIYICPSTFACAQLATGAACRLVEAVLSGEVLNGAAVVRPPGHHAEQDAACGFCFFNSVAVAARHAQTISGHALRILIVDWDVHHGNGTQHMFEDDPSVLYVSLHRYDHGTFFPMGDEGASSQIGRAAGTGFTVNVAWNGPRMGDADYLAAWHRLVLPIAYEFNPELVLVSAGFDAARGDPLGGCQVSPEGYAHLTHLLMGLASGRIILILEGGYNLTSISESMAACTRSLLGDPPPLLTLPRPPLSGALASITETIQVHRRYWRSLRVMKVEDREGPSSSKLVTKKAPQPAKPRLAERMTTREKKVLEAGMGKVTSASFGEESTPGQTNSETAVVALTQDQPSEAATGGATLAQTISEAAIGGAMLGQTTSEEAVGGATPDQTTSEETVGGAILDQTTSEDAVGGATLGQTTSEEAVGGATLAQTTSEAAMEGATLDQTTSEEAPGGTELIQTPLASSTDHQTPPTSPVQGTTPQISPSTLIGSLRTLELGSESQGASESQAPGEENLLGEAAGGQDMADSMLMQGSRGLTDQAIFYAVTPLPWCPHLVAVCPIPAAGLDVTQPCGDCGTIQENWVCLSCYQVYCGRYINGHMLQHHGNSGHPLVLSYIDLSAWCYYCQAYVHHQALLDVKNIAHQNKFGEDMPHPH
The assay is described as follows: In vitro histone deacetylase assay: enzymatic HDAC6 electrophoretic mobility shift assay. It counts as biochemical. The note with it: 1 nM enzyme, 2 μM peptide substrate RHKK(Ac)-NH2, 25° C., 12 concentrations; read-out: Inhibitory Concentration (IC50) Values against HDAC6, Activity Range.

For `O=C(NO)c1ccc2c(c1)OC[C@H](Cc1ccccc1)N(C(=O)C1CCOCC1)C2` [(S)-3-benzyl-N-hydroxy-4-(tetrahydro-2H-pyran-4-carbonyl)-2,3,4,5-tetrahydrobenzo[f][1,4]oxazepine-8-carboxamide], the IC50 was ≤ 100 nM.

For `C[C@H]1COc2cc(C(=O)NO)ccc2CN1C(=O)C1CCCOCC1` (stereo partly drawn) [(3S)-N-hydroxy-3-methyl-4-(oxepane-4-carbonyl)-2,3,4,5-tetrahydrobenzo[f][1,4]oxazepine-8-carboxamide], the IC50 was ≤ 100 nM.

With `COC1(C(=O)N2Cc3ccc(C(=O)NO)cc3OC[C@@H]2C)CCCC1` [(S)-N-hydroxy-4-(1-methoxycyclopentane-1-carbonyl)-3-methyl-2,3,4,5-tetrahydrobenzo[f][1,4]oxazepine-8-carboxamide], the IC50 was ≤ 100 nM.

Consider `O=C(NO)c1ccc2c(c1)OCCN(C(=O)C1CC1)C2` [4-(cyclopropanecarbonyl)-N-hydroxy-2,3,4,5-tetrahydrobenzo[f][1,4]oxazepine-8-carboxamide], for which the IC50 was in the range of 100 to 500 nM.

Take `C[C@H]1c2ccc(C(=O)NO)cc2OCCN1C(=O)C1(C)CCC1` [(S)-N-hydroxy-5-methyl-4-(1-methylcyclobutane-1-carbonyl)-2,3,4,5-tetrahydrobenzo[f][1,4]oxazepine-8-carboxamide]: the IC50 was ≤ 100 nM.

Turning to `O=C(NO)c1ccc2c(c1)OCCN(C(=O)C1CCCCC1)C2` [4-(cyclohexanecarbonyl)-N-hydroxy-2,3,4,5-tetrahydrobenzo[f][1,4]oxazepine-8-carboxamide], the IC50 is ≤ 100 nM.

Take `C[C@H]1COc2cc(C(=O)NO)ccc2CN1C(=O)CC1CCOCC1` [(S)-N-hydroxy-3-methyl-4-(2-(tetrahydro-2H-pyran-4-yl)acetyl)-2,3,4,5-tetrahydrobenzo[f][1,4]oxazepine-8-carboxamide]: the IC50 was in the range of 100 to 500 nM.

Take `C[C@H]1COc2cc(C(=O)NO)ccc2CN1C(=O)[C@@]1(C)CCOC1` [(S)-N-hydroxy-3-methyl-4-((S)-3-methyltetrahydrofuran-3-carbonyl)-2,3,4,5-tetrahydrobenzo[f][1,4]oxazepine-8-carboxamide]: the IC50 was ≤ 100 nM.

Turning to `C[C@H]1c2ccc(C(=O)NO)cc2OCCN1C(=O)[C@H]1CCCOC1` [(S)-N-hydroxy-5-methyl-4-((S)-tetrahydro-2H-pyran-3-carbonyl)-2,3,4,5-tetrahydrobenzo[f][1,4]oxazepine-8-carboxamide], the IC50 was ≤ 100 nM.

Consider `O=C(NO)c1ccc2c(c1)OCCN(C(=O)Cn1cccc(C(F)(F)F)c1=O)C2` [N-hydroxy-4-(2-(2-oxo-3-(trifluoromethyl)pyridin-1(2H)-yl)acetyl)-2,3,4,5-tetrahydrobenzo[f][1,4]oxazepine-8-carboxamide], for which the IC50 fell in the range of 100 to 500 nM.

For `Cn1ccc(C(=O)N2CCOc3cc(C(=O)NO)ccc3C2)n1` [N-hydroxy-4-(1-methyl-1H-pyrazole-3-carbonyl)-2,3,4,5-tetrahydrobenzo[f][1,4]oxazepine-8-carboxamide], the IC50 is ≤ 100 nM.

`C[C@@H]1c2cc(C(=O)NO)ccc2OCCN1C(=O)C1(C)CCC1` [(R)-N-hydroxy-5-methyl-4-(1-methylcyclobutane-1-carbonyl)-2,3,4,5-tetrahydrobenzo[f][1,4]oxazepine-7-carboxamide]: the IC50 was ≤ 100 nM.

With `CC(=O)N1Cc2ccc(C(=O)NO)cc2OC[C@H]1C` [(R)-4-acetyl-N-hydroxy-3-methyl-2,3,4,5-tetrahydrobenzo[f][1,4]oxazepine-8-carboxamide], the IC50 is > 500 nM.

Consider `C[C@H]1COc2cc(C(=O)NO)ccc2CN1C(=O)[C@H]1C[C@H](Oc2ccccc2)C1` (single isomer, unassigned), for which the IC50 is ≤ 100 nM.

In the case of `CC(C(=O)N1CCOc2cc(C(=O)NO)ccc2C1)c1cccnc1` (stereo not shown) [N-hydroxy-4-(2-(pyridin-3-yl)propanoyl)-2,3,4,5-tetrahydrobenzo[f][1,4]oxazepine-8-carboxamide], the IC50 is ≤ 100 nM.

On to `CC(C)(C(=O)N1CCOc2cc(C(=O)NO)ccc2C1)c1ccc(-c2ccccc2)cc1` [4-(2-([1,1′-biphenyl]-4-yl)-2-methylpropanoyl)-N-hydroxy-2,3,4,5-tetrahydrobenzo[f][1,4]oxazepine-8-carboxamide], for which the IC50 fell in the range of 100 to 500 nM.

Regarding `CC1(C)C[C@@H]1C(=O)N1CCOc2cc(C(=O)NO)ccc2C1` [(S)-4-(2,2-dimethylcyclopropane-1-carbonyl)-N-hydroxy-2,3,4,5-tetrahydrobenzo[f][1,4]oxazepine-8-carboxamide], the IC50 was 100 to 500 nM.

Take `O=C(NO)c1ccc2c(c1)OCCN(C(=O)c1ccc3c(c1)CCO3)C2` [4-(2,3-dihydrobenzofuran-5-carbonyl)-N-hydroxy-2,3,4,5-tetrahydrobenzo[f][1,4]oxazepine-8-carboxamide]: the IC50 is 100 to 500 nM.

For `COC1(C(=O)N2CCOc3cc(C(=O)NO)ccc3C2)CC1` [N-hydroxy-4-(1-methoxycyclopropane-1-carbonyl)-2,3,4,5-tetrahydrobenzo[f][1,4]oxazepine-8-carboxamide], the IC50 was ≤ 100 nM.

With `O=C(NO)c1ccc2c(c1)OCCN(C(=O)C1(c3ccc(C(F)(F)F)cc3)CC1)C2` [N-hydroxy-4-(1-(4-(trifluoromethyl)phenyl)cyclopropane-1-carbonyl)-2,3,4,5-tetrahydrobenzo[f][1,4]oxazepine-8-carboxamide], the IC50 is ≤ 100 nM.

As for `COC1(C(=O)N2CCOc3cc(C(=O)NO)ccc3C2)CCC1` [N-hydroxy-4-(1-methoxycyclobutane-1-carbonyl)-2,3,4,5-tetrahydrobenzo[f][1,4]oxazepine-8-carboxamide], the IC50 was ≤ 100 nM.

Regarding `C[C@H]1COc2cc(C(=O)NO)ccc2CN1C(=O)[C@H]1CCCOC1` [(S)-N-hydroxy-3-methyl-4-((S)-tetrahydro-2H-pyran-3-carbonyl)-2,3,4,5-tetrahydrobenzo[f][1,4]oxazepine-8-carboxamide], the IC50 was ≤ 100 nM.

Turning to `O=C(NO)c1ccc2c(c1)OCCN(C(=O)C1CC1c1ccccc1)C2` (stereo not shown) [N-hydroxy-4-(2-phenylcyclopropane-1-carbonyl)-2,3,4,5-tetrahydrobenzo[f][1,4]oxazepine-8-carboxamide], the IC50 is ≤ 100 nM.

On to `C[C@H]1COc2cc(C(=O)NO)ccc2CN1C(=O)C1CCOCC1` [(S)-N-hydroxy-3-methyl-4-(tetrahydro-2H-pyran-4-carbonyl)-2,3,4,5-tetrahydrobenzo[f][1,4]oxazepine-8-carboxamide], for which the IC50 is ≤ 100 nM.

As to `COC1CCC(C(=O)N2Cc3ccc(C(=O)NO)cc3OC[C@@H]2C)CC1` (single isomer, unassigned), the IC50 is ≤ 100 nM.

`O=C(NO)c1ccc2c(c1)OCCN(C(=O)C1(c3cccc(Cl)c3)CC1)C2` [4-(1-(3-chlorophenyl)cyclopropane-1-carbonyl)-N-hydroxy-2,3,4,5-tetrahydrobenzo[f][1,4]oxazepine-8-carboxamide]: the IC50 is ≤ 100 nM.

Turning to `CC1(C(=O)N2Cc3ccc(C(=O)NO)cc3OCC2(C)C)CCC1` [N-hydroxy-3,3-dimethyl-4-(1-methylcyclobutane-1-carbonyl)-2,3,4,5-tetrahydrobenzo[f][1,4]oxazepine-8-carboxamide], the IC50 was > 500 nM.

With `O=C(NO)c1ccc2c(c1)OCCN(C(=O)C1CC3(CCNCC3)c3ccccc31)C2` (stereo not shown) [4-(2,3-dihydrospiro[indene-1,4′-piperidine]-3-carbonyl)-N-hydroxy-2,3,4,5-tetrahydrobenzo[f][1,4]oxazepine-8-carboxamide], the IC50 was 100 to 500 nM.

Source of the values: patent US11891365B2, “3-alkyl-4-amido-bicyclic [4,5,0] hydroxamic acids as HDAC inhibitors” (Valo Health, Inc., priority 2015, dated 2024).
